# The source made the active and inactive calls. The calls are words filed in the database; no cut-off is given here.
# Key:
# Zika virus [1] = assay: Antiviral activity against ZIKV ZG-01 infected in human SNB-19 cells assessed as reduction in GSDME cleavage by Western blot analysis; type: functional, organism-based; settings: dose 1-20 µM
# Zika virus [2] = assay: Antiviral activity against ZIKV ZG-01 infected in Ifnar1 knockout C57BL/6 mouse assessed as reduction in neuronal necrosis by measuring karyolysis at 20 mg/kg, iv administered daily for 7 days and measured upto 12 dpi by H and E staining based analysis; type: functional, organism-based; settings: time <= 12.0 day
# [3] = Cytotoxicity against human JEG-3 cells assessed as reduction in cell viability incubated for 48 hrs by MTT assay; type: toxicity, cell-based
# JEG-3 [4] = assay: Antiinflammatory activity in human JEG-3 cells assessed as reduction in IL-1beta expression by RT-PCR analysis; type: functional, cell-based
# [5] = Toxicity in Ifnar1 knockout C57BL/6 mouse assessed as body weight loss at 60 mg/kg administered for 7 days; type: organism-based; settings: in vivo, 168 h, time 7 day
# Zika virus [6] = assay: Antiviral activity against ZIKV ZG-01 infected in SNB-19 cells assessed as reduction in viral envelope protein level at 10 uM after 18 to 48 hrs by Western blot assay; type: functional, organism-based; settings: time 18-48 hrs
# HEK293T = assay: Inhibition of ZIKV RNA polymerase NS5 expressed in HEK293T cells co-transfected with Gluc-reporter gene at 20 uM incubated for 24 hrs by Dual-glo luminescence assay; type: cell-based; settings: Zika virus
# SNB-19 [7] = assay: Antiinflammatory activity in human SNB-19 cells assessed as reduction in IL-6 expression by RT-PCR analysis; type: functional, cell-based
# Zika virus [8] = assay: Antiviral activity against ZIKV ZG-01 infected in SNB-19 cells preincubated for 1 hr followed by replacement with fresh media containing compound for 48 hrs by crystal violet staining based plaque assay; type: functional
# [9] = Cytotoxicity against human A549 cells assessed as reduction in cell viability incubated for 48 hrs by MTT assay; type: toxicity, cell-based
# Zika virus [10] = assay: Antiviral activity against ZIKV ZG-01 infected in SNB-19 cells assessed as reduction in viral envelope protein expression at 5 uM by immunofluorescence assay; type: functional, organism-based
# Zika virus [11] = assay: Antiviral activity against ZIKV ZG-01 infected in JEG-3 cells assessed as reduction in viral envelope protein level at 10 uM after 18 to 48 hrs by Western blot assay; type: functional, organism-based; settings: time 18-48 hrs
# Zika virus [12] = assay: Antiviral activity against ZIKV ZG-01 infected in human JEG-3 cells assessed as reduction in GSDME cleavage by Western blot analysis; type: functional, organism-based; settings: dose 1-20 µM
# Zika virus [13] = assay: Antiviral activity against ZIKV ZG-01 infected in Ifnar1 knockout C57BL/6 mouse assessed as reduction in neuronal necrosis by measuring pyknosis at 20 mg/kg, iv administered daily for 7 days and measured upto 12 dpi by H and E staining based analysis; type: functional, organism-based; settings: time <= 12.0 day
# Zika virus [14] = assay: Antiviral activity against ZIKV ZG-01 infected in human JEG-3 cells assessed as reduction in LDH release incubated for 36 hrs; type: functional, organism-based; settings: dose 1-5 µM
# Zika virus [15] = assay: Antiviral activity against ZIKV ZG-01 infected in human SNB-19 cells assessed as reduction in TNFalpha expression at 1 to 5 uM by RT-PCR analysis; type: functional, organism-based; settings: dose 1-5 µM
# Zika virus [16] = assay: Antiviral activity against ZIKV ZG-01 infected in SNB-19 cells assessed as reduction in viral replication at 20 uM preincubated for 1 hr followed by replacement with fresh media containing compound for 48 hrs by RT-PCR analysis; type: functional; parameters: scale not given: the % may be the effect or the level left; settings: time 49 hrs
# Zika virus [17] = assay: Antiviral activity against ZIKV ZG-01 infected in human SNB-19 cells assessed as reduction in IFNgamma expression at 1 to 5 uM by RT-PCR analysis; type: functional, organism-based; settings: dose 1-5 µM
# NS5 = NS5 (Zika virus, UniProt A0A143MHK7); assay: Binding affinity to ZIKV RdRP by SPR assay
# Zika virus [18] = assay: Antiviral activity against ZIKV ZG-01 infected in Vero cells preincubated for 1 hr followed by replacement with fresh media containing compound for 48 hrs by crystal violet staining based plaque assay; type: functional
# JEG-3 [19] = assay: Antiinflammatory activity in human JEG-3 cells assessed as reduction in TNFalpha expression by RT-PCR analysis; type: functional, cell-based
# Zika virus [20] = assay: Antiviral activity against ZIKV ZG-01 infected in human SNB-19 cells assessed as reduction in IL-1beta release at 1 to 5 uM by ELISA; type: functional, organism-based; settings: dose 1-5 µM
# SNB-19 [21] = assay: Antiinflammatory activity in human SNB-19 cells assessed as reduction in IL-1beta expression by RT-PCR analysis; type: functional, cell-based
# Zika virus [22] = assay: Antiviral activity against ZIKV ZG-01 infected in human JEG-3 cells assessed as reduction in GSDMD cleavage by Western blot analysis; type: functional, organism-based; settings: dose 1-20 µM
# Zika virus [23] = assay: Antiviral activity against ZIKV ZG-01 infected in human JEG-3 cells assessed as reduction in IL-1beta release at 1 to 5 uM by ELISA; type: functional, organism-based; settings: dose 1-5 µM
# SNB-19 [24] = assay: Antiinflammatory activity in human SNB-19 cells assessed as reduction in TNFalpha expression by RT-PCR analysis; type: functional, cell-based
# Zika virus [25] = assay: Antiviral activity against ZIKV ZG-01 infected in Ifnar1 knockout C57BL/6 mouse assessed as reduction in weight loss at 20 mg/kg, iv administered daily for 7 days and measured upto 12 dpi; type: functional, organism-based; settings: time <= 12.0 day
# Zika virus [26] = assay: Antiviral activity against ZIKV ZG-01 infected in human JEG-3 cells assessed as reduction in TNFalpha release at 1 to 5 uM by ELISA; type: functional, organism-based; settings: dose 1-5 µM
# Zika virus [27] = assay: Antiviral activity against ZIKV ZG-01 infected in JEG-3 cells assessed as reduction in viral envelope protein expression at 5 uM by immunofluorescence assay; type: functional, organism-based
# NS5, sequence (A0A143MHK7 whole entry): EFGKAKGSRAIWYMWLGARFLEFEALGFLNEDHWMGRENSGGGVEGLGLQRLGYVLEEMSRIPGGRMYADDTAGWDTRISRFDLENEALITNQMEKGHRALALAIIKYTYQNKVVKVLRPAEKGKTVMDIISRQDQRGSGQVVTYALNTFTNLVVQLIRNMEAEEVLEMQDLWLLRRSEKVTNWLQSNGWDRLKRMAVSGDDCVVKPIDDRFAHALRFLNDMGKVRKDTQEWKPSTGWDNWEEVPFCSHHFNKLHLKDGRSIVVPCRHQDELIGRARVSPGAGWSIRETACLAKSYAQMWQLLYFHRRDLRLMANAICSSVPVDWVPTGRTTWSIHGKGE
smiles,measurement,setting,value
C[C@]1(O)CC2=C(C[C@@]1(C)O)C(=O)c1c(O)cc(N3CCC(c4ccccc4)CC3)c(O)c1C2=O,Activity,Zika virus [1],Dose-Dependent Effect
same,Activity,Zika virus [2],Active
same,CC50 at 48 h,[3],54.7 µM
same,Activity,JEG-3 [4],inactive
same,Activity,[5],Non-Toxic
same,Activity,Zika virus [6],Active
same,inhibition,HEK293T,Dose-Dependent Effect
same,Activity,SNB-19 [7],inactive
same,EC90,"Zika virus [8]; ZG-01, SNB-19, time 49 hrs",6.4 µM
same,Activity,Zika virus [8]; time 49.0 hrs,Dose-Dependent Effect
same,CC50 at 48 h,[9],> 50 µM
same,Activity,Zika virus [10],Active
same,Activity,Zika virus [11],Active
same,Activity,Zika virus [12],Dose-Dependent Effect
same,Activity,Zika virus [13],Active
same,Activity,Zika virus [14],Dose-Dependent Effect
same,Activity,Zika virus [15],Active
same,Activity,Zika virus [16],100%
same,Activity,Zika virus [17],Active
same,Kd,NS5,10.4 µM
same,EC90,"Zika virus [18]; ZG-01, Vero, time 49 hrs",6.4 µM
same,Activity,Zika virus [18]; time 49.0 hrs,Dose-Dependent Effect
same,Activity,JEG-3 [19],inactive
same,Activity,Zika virus [20],Active
same,Activity,SNB-19 [21],inactive
same,Activity,Zika virus [22],Dose-Dependent Effect
same,Activity,Zika virus [23],Active
same,Activity,SNB-19 [24],inactive
same,Activity,Zika virus [25],Active
same,Activity,Zika virus [26],Active
same,Activity,Zika virus [27],Active
